In patent publication US10548313B2, “Acetyl-CoA carboxylase modulators” (Monsanto Technology LLC, priority 2013, dated 2020):
Where “and” joins values, the source holds several entries; their conditions need not be identical. Equal entries are not always repeated. Where two headings read alike, the source gives them in different places.

Legend:
[1] = test system: Collectotrichum graminicola; assay: Fungal growth inhibition assay, Collectotrichum graminicola; assay type: cell-based; settings: Colletotrichum graminicola, 48 hours, read-out: C. graminicola % growth inhibition at 48 hours
Method: (§1) Spores were isolated from previously sub-cultured plates of Botrytis cinerea, Phytophthora capsici, Fusarium moniliforme, Fusarium viguliforme, Collectotrichum graminicola, and Diplodia maydis. All spores were filtered and collected in a sterile glass bowl to isolate the spores from the mycelia. The isolation and sub-culture plate condition for each pathogen is described below.
Spore isolation for C. graminicola: A 1-2 week old oatmeal agar (pre-mix) plate was removed from 26° C. incubator with a light/dark 12 hour cycle and the mycelia were treated with 10-15 ml of filter sterilized distilled water. The mycelia were scraped to re-suspend the spores. The spores were then collected in a sterile filter bowl containing a piece of sterile cheesecloth and poured into a conical tube.
(§2) After spore isolation, pathogen spores were counted on a hemocytometer to calculate the spores/ml. In 17% V8 liquid media containing 3 g/L CaCO3, isolated spores were diluted to individual concentrations based on the growth curves at 48 hours of each pathogen. The spore concentrations for each pathogen were as follows: B. cinerea—10,000 sp/ml; P. capsici—300 sp/ml; F. monliforme—500 sp/ml; F. virguliforme—500 sp/ml; C. graminicola—3,000 sp/ml; and D. maydis—3,000 sp/ml.
(§3) Chemistry stocks were dissolved in DMSO at 2.5 mg/ml. Chemistry was diluted in a 96-well stock plate in five-fold dilutions to obtain a final concentration of 50, 10, and 2 ppm in vitro. The final concentration of the positive control after the five-fold dilutions was as follows: soraphen—0.5, 0.1, and 0.02 ppm. Negative controls on each plate included 2% DMSO, water containing spores and media, and a blank for background subtraction.
(§4) In a 96-well plate the spore solution, chemistries, and controls were combined to make the final solution concentrations mentioned above. Upon addition of the chemistry, an OD600 reading was done to assess chemical precipitation. The 96-well plates were incubated in plastic tubs containing wet paper towels under the following conditions, 25° C. in the dark for P. capsici and B. cinerea or 26° C. with light/dark cycle for C. graminicola, D. maydis, F. virguliforme, F. monliforme. Plate readings were repeated at 24 and 48 hrs. Visual ratings were performed at 24 and 48 hrs to check for precipitation and confirm efficacy. Visual and OD600 ratings of the chemistry at 48 hours were compared to the 2% DMSO control to determine the percent of pathogen growth inhibition.

[2] = test system: Fusarium virguliforme; assay: Fungal growth inhibition assay, Fusarium virguliforme; assay type: cell-based; settings: 48 hours, read-out: F. virguliforme % growth inhibition at 48 hours
Method: as §1
Spore isolation for F. virguliforme: A 2-3 week old PDA (pre-mix) plate containing cefotaxime (100 mg/L) and kanamycin (50 mg/L) was removed from 26° C. incubator with a light/dark 12 hour cycle and the mycelia were treated with 5-10 ml of filter sterilized distilled water. The mycelia were scraped to re-suspend the spores. The spores were then collected in a sterile filter bowl containing a fluted piece of filter paper and poured into a conical tube.
as §2, §3, §4

[3] = test system: Diplodia maydis; assay: Fungal growth inhibition assay, Diplodia maydis; assay type: cell-based; settings: 48 hours, read-out: D. maydis % growth inhibition at 48 hours
Method: as §1
Spore isolation for D. maydis: A 3-4 week old PDA (pre-mix) plate was removed from 26° C. incubator with a light/dark 12 hour cycle and the mycelia were treated with 6-7 ml of sterile distilled water, scraped into a sterile petri dish, and smashed to open the pycnidia. The spores were then collected in a sterile filter bowl containing a fluted piece of filter paper and poured into a conical tube.
as §2, §3, §4

[4] = target: Ustilago maydis acetyl CoA carboxylase (ACCase) (Mycosarcoma maydis (Ustilago maydis), UniProt A0A0D1DYD5); assay: ACCase enzymatic assay (coupled PK/LDH, NADH OD340); assay type: biochemical
Method: Ustilago maydis acetyl CoA carboxylase (ACCase) was cloned, expressed, and purified as described (Weatherly et al, Biochem. J., 2004) and the test compounds were tested in a 96-well plate format. Primary in vitro screening consisted of obtaining dose response data at 100, 33, 10, and 1 μM inhibitor. Actives in the primary screen were re-tested to establish IC50 values.
Direct detection of the conversion of acetyl CoA to malonyl CoA by ACCase was not feasible, but during this process ATP is converted to ADP which allowed for detection through a standard reaction coupling with ADP recycling to the oxidation of NADH. Thus, ACCase activity was measured via kinetic OD340 measurements of the conversion of NADH to NAD in a coupled reaction involving the conversion of phosphoenolpyruvate (PEP) to lactate.
The complete 200 ul reaction mixture contained 52.5 mM HEPES (pH8), 2.625 mM MgCl2, 1 mM ATP, 0.525 mM DTT, 11 mM NaHCO3, 1% DMSO with or without inhibitor, 1× pyruvate kinase/lactate dehydrogenase (PK/LDH), 0.3 mM NADH, 0.5 mM PEP, and 5 μg ACCase. The reactions were incubated at 30° C. for 10 minutes and then initiated by the addition of 0.33 mM acetyl CoA. The initiated reactions were read immediately via plate reader at OD340 and kinetic readings were acquired every 20 s for 15 minutes while keeping the temperature at 30° C.
A slope of the kinetic curve was determined by using the 2 to 7 minute data which was then calculated as percent inhibition relative to the no inhibitor control.
The primary screens were conducted in duplicate and the IC50's conducted in triplicate. Averages were reported along with standard deviation calculation to generate error bars.
Each plate contained its own controls and consisted of a DMSO only control, 5-fold titration series of soraphen from 2 μM to 3.2 nM, and an ADP coupled reaction control.

[5] = test system: Botrytis cinerea; assay: Fungal growth inhibition assay, Botrytis cinerea; assay type: cell-based; settings: 48 hours, read-out: B. cinerea % growth inhibition at 48 hours
Text: as §1
Spore isolation for B. cinerea: A 2-3 week old V8 (17%)+CaCO3 (3 g/L)+20 g agar plate was removed from room temperature and the mycelia were treated with 5-10 ml of filter sterilized Triton X 100 (.05%). The mycelia were scraped to re-suspend the spores. The spores were then collected in a sterile filter bowl containing a fluted piece of filter paper and poured into a conical tube.
as §2, §3, §4

[6] = test system: Saccharomyces cerevisiae; assay: Yeast growth inhibition assay; assay type: cell-based
Method: Yeast cells (Ade2 strain) were grown in liquid YPD (1% yeast extract, 2% peptone, 2% dextrose) for 16 hours at 30° C. from previously sub-cultured plates of Saccharomyces cerevisiae. The OD600 of the overnight culture was checked via spectrophotometer and diluted to a concentration of 2×10^4 cells/ml.
Chemistry stocks were dissolved in DMSO to a concentration of 10 mM. Chemistry stocks were further diluted in a 96-well stock plate to obtain final concentrations of 100, 33, 10 and 1 μM in 1% DMSO. The final concentrations of the soraphen positive controls were 400, 40, and 3.2 nM. The negative controls on each plate included a background subtraction control containing yeast and 1% DMSO (without chemistry) and a second contamination control containing YPD (with no yeast) and 1% DMSO (without chemistry).
98 μl liquid YPD was added to 2 μl diluted stock of DMSO per well and mixed thoroughly. After mixing, 100 μl of the diluted yeast solution was added to bring the final yeast concentration to 1×10^4 cells/ml or 2000 cells per well. An initial spectrophotometric reading at OD600 was conducted on the entire plate and served as the 0 hour time point used to subtract any background. […] […] […] All experiments were conducted in triplicate. Averages were reported along with standard deviation calculation to generate error bars. Each plate contained its own controls and consisted of inoculated+DMSO, non-inoculated+DMSO, and a titration series of soraphen at 400, 40, and 3.2 nM.

[7] = test system: Phytophthora capsici; assay: Fungal growth inhibition assay, Phytophthora capsici; assay type: cell-based; settings: 48 hours, read-out: P. capsici % growth inhibition at 48 hours
Text: as §1
Spore isolation for P. capsici: Three to five days prior to the assay a 2-3 week old V8 (17%)+CaCO3 (3 g/L)+20 g agar plate was removed from a dark 25° C. incubator and cut up into small chunks. One plate was separated into two deep well plates and rinsed with sterile distilled water three times. The cut up pieces were incubated under light in a sterile filter hood with 25 ml of sterile distilled water. On the day of the assay the water was removed and 5-7 ml of fresh sterile distilled water was added. One plate was incubated at 4° C. for 45-60 minutes and then placed at room temperature for about 45-60 minutes. The spores were collected in a sterile filter bowl containing a fluted piece of filter paper. The spores were vortexed in a conical tube for 30-60 seconds to remove the flagella of the zoospores after isolation.
as §2, §3, §4

[8] = Table 1A, values marked a are a result of two or more experiments, read-out: ACCase Inhibitory Activity IC50

Sequence of Ustilago maydis acetyl CoA carboxylase (ACCase) (A0A0D1DYD5 1-2185): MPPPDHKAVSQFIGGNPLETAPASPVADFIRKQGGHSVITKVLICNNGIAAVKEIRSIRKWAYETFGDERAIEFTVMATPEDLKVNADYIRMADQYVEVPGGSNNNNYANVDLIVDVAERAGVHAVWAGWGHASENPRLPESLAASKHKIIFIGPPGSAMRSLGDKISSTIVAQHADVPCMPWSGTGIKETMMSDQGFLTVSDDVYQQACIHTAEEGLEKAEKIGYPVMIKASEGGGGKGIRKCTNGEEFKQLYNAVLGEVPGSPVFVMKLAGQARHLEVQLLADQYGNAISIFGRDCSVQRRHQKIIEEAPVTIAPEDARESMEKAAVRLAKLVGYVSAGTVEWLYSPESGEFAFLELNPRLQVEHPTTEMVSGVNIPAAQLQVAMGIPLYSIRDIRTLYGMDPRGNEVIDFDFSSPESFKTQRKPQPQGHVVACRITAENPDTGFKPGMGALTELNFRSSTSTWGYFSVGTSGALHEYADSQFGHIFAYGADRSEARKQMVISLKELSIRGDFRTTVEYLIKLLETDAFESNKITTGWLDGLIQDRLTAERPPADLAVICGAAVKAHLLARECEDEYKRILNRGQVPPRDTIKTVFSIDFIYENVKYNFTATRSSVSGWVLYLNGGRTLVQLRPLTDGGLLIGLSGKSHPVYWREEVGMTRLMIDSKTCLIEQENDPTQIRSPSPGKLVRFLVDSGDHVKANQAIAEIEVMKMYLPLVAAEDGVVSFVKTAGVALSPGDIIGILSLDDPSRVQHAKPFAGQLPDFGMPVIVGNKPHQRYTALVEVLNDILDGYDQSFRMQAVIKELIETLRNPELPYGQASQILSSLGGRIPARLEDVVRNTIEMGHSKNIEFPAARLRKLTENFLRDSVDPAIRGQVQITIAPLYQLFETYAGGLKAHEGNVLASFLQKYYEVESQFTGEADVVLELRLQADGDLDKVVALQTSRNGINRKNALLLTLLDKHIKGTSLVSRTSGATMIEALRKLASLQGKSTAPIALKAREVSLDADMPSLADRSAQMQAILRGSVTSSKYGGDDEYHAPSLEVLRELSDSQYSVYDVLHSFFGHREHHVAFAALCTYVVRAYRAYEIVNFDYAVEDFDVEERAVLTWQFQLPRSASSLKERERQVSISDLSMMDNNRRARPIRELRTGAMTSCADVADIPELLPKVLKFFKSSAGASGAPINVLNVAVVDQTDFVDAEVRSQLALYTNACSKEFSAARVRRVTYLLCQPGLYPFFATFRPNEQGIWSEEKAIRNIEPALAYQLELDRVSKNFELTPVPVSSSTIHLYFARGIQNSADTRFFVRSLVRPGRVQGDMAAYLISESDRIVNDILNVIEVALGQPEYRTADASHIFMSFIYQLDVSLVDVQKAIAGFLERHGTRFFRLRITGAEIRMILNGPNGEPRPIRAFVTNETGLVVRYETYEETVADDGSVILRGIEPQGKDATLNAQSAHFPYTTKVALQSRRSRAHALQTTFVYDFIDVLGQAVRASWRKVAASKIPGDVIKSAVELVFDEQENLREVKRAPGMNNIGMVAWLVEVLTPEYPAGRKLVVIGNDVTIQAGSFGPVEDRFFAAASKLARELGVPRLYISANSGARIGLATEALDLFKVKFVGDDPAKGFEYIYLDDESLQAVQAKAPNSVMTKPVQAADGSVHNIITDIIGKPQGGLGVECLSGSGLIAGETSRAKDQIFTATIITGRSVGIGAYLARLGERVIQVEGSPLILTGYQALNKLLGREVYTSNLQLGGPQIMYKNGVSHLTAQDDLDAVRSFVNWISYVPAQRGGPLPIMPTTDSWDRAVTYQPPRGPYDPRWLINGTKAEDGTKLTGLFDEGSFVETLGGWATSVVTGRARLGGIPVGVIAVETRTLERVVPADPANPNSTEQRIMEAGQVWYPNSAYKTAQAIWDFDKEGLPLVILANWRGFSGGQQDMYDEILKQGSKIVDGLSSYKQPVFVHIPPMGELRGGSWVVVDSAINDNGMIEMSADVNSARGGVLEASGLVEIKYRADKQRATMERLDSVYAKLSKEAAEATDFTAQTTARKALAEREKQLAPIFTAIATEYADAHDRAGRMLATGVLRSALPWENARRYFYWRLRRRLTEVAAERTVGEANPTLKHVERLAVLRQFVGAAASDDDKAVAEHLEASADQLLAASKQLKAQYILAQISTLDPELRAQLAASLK

SMILES | inhibition at 2 ppm [1] [%] | inhibition at 10 ppm [1] [%] | inhibition at 50 ppm [1] [%] | inhibition at 2 ppm [2] [%] | inhibition at 10 ppm [2] [%] | inhibition at 2 ppm [3] [%] | inhibition at 10 ppm [3] [%] | inhibition at 50 ppm [3] [%] | inhibition at 2 ppm [5] [%] | inhibition at 10 ppm [5] [%] | IC50 [4, 8] [nM] | inhibition at 50 ppm [5] [%] | further results
N#Cc1c(-c2cccs2)cc(-c2cccs2)nc1SC(C(=O)O)c1ccccc1 (racemic) [Formula Ia-iii, 2-((3-cyano-4,6-di(thiophen-2-yl)pyridin-2-yl)thio)-2-phenylacetic acid] | 27 | 98 | 91 | 2 | 84 | 0 | 87 | 82 |  |  |  |  | inhibition at 50 ppm ([2]; 50 ppm): 90%
COc1ccc(-c2cc(-c3cccs3)nc(SC(C(=O)O)c3ccccc3)c2C#N)cc1 (racemic) [Formula Ia-xiv, 2-((3-cyano-4-(4-methoxyphenyl)-6-(thiophen-2-yl)pyridin-2-yl)thio)-2-phenylacetic acid] | 6 | 32 | 79 |  |  |  |  |  | 14 | 8 |  |  | IC50 ([4]; Table 1B, racemate vs single enantiomers, read-out: ACCase Inhibitory Activity of Racemic Mixtures and Single Enantiomers IC50): 92 nM and 140 nM
N#Cc1c(C(F)(F)F)cc(-c2ccc(Br)cc2)nc1SC(C(=O)O)c1ccccc1 (stereo not drawn) [Formula Ia-x, 2-((6-(4-bromophenyl)-3-cyano-4-(trifluoromethyl)pyridin-2-yl)thio)-2-phenylacetic acid] |  |  |  |  |  |  |  |  | 0 | 12 | 1950 | 25 | inhibition at 3.7 µM ([6]; read-out: S. cerevisiae % growth inhibition at 48 hours, 3.7 μM): 12%; inhibition at 11.1 µM ([6]; read-out: S. cerevisiae % growth inhibition at 48 hours, 11.1 μM): 13%; inhibition at 33.3 µM ([6]; read-out: S. cerevisiae % growth inhibition at 48 hours, 33.3 μM): 46%; inhibition at 100 µM ([6]; read-out: S. cerevisiae % growth inhibition at 48 hours, 100 μM): 99%
N#Cc1c(-c2ccccc2)cc(-c2ccccc2)nc1SC(C(=O)O)c1ccccc1 (stereo not drawn) [Formula Ia-xii, 2-((3-cyano-4,6-diphenylpyridin-2-yl)thio)-2-phenylacetic acid] | 6 | 35 | 80 |  |  | 42 | 59 | 86 | 0 | 6 | 266 | 19 | inhibition at 2 ppm ([7]; 2 ppm): 16%; inhibition at 10 ppm ([7]; 10 ppm): 36%; inhibition at 50 ppm ([7]; 50 ppm): 22%
CCc1nc(SC(C(=O)O)c2ccccc2)c(C#N)c2c1CCCC2 (stereo not drawn) [Formula Ia-xv, 2-((4-cyano-1-ethyl-5,6,7,8-tetrahydroisoquinolin-3-yl)thio)-2-phenylacetic acid] |  |  |  | 10 | 48 |  |  |  |  |  | 10200 |  | 
